Test results as given in patent publication US12522594B2, “2-heteroaryl-3-oxo-2,3-dihydropyridazine-4-carboxamides for the treatment of cancer” (Deutsches Krebsforschungszentrum, priority 2017, dated 2026).

What was measured:
[1] = target: T1, AHR (Homo sapiens, UniProt P35869); experiment: In vitro assay 2: agonism in human cell line (transactivation assay, U87 cells, DRE firefly luciferase reporter); assay type: cell-based; parameters: host or cells: U87 glioblastoma cells, stably transfected with DRE firefly luciferase and renilla reporter constructs; details: no kynurenic acid, 20 hours, read-out: Assay 2: AHR-luc Hum Agonism IC50
T1 sequence (P35869 11-848): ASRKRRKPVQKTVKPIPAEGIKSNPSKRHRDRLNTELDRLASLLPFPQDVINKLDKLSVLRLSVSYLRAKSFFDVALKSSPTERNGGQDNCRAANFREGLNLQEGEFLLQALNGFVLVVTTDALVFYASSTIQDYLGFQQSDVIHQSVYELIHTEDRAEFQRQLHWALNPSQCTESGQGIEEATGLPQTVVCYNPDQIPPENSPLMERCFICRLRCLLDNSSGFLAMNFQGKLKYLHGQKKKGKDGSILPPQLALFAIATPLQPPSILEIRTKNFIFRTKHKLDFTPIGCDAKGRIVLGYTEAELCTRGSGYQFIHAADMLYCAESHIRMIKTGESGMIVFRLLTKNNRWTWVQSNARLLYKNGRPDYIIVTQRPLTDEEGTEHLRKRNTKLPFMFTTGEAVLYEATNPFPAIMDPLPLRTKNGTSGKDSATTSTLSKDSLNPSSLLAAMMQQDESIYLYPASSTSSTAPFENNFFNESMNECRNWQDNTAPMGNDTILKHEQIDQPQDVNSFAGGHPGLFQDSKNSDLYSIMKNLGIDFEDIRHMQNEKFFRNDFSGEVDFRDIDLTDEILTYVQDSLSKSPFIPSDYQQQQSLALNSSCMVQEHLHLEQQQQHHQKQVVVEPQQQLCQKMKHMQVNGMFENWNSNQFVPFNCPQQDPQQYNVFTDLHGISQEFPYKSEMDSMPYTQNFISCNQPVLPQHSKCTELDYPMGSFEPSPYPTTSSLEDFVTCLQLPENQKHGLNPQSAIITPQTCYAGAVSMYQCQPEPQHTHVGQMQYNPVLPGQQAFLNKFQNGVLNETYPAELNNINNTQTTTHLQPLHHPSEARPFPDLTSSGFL
In short: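 U87 glioblastoma cells with endogenous AHR, stably carrying DRE-driven firefly luciferase and constitutive renilla reporters. 300 uM kynurenic acid served as positive activation control; data normalized to positive and negative controls.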

[2] = target: T1, AHR; experiment: In vitro assay 1: antagonism in human cell line (transactivation assay, U87 cells prestimulated with kynurenic acid, DRE firefly luciferase reporter); assay type: cell-based; parameters: host or cells: U87 glioblastoma cells, stably transfected with DRE firefly luciferase and renilla reporter constructs; details: 150 uM kynurenic acid, 20 hours, read-out: Assay 1: AHR-luc Hum Antagonism IC50
In short: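 U87 glioblastoma cells with endogenous AHR, stably carrying a DRE-driven firefly luciferase reporter and a constitutive renilla reporter. Cells prestimulated with the AHR agonist kynurenic acid before compound addition; data normalized to positive and negative controls.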

Structure (SMILES): CC(C)(O)C(NC(=O)c1cc(-c2ccc(C(F)(F)F)cc2)nn(-c2cccnc2)c1=O)C(F)(F)F (stereo not shown) [Example 213, 3-Oxo-2-(pyridin-3-yl)-N-(1,1,1-trifluoro-3-hydroxy-3-methylbutan-2-yl)-6-[4-(trifluoromethyl)phenyl]-2,3-dihydropyridazine-4-carboxamide]
- IC50 [1]: > 20 µM
- IC50 [2]: 1.92 nM

Structure (SMILES): O=C(N[C@H](CO)C(F)(F)F)c1cc(-c2ccc(C(F)(F)F)cc2)nn(-c2cnn(C(F)F)c2)c1=O [Example 214, 2-[1-(Difluoromethyl)-1H-pyrazol-4-yl]-3-oxo-N-[(2R)-1,1,1-trifluoro-3-hydroxypropan-2-yl]-6-[4-(trifluoromethyl)phenyl]-2,3-dihydropyridazine-4-carboxamide]
- IC50 [1]: > 20 µM
- IC50 [2]: 2.07 nM

Structure (SMILES): O=C(NC[C@H](O)C(F)(F)F)c1cc(-c2ccc(C(F)(F)F)cc2)nn(-c2cn[nH]c2)c1=O [Example 216, 3-Oxo-2-(1H-pyrazol-4-yl)-N-[(2S)-3,3,3-trifluoro-2-hydroxypropyl]-6-[4-(trifluoromethyl)phenyl]-2,3-dihydropyridazine-4-carboxamide]
- IC50 [1]: > 20 µM
- IC50 [2]: 2.38 nM

Structure (SMILES): Cn1cc(-n2nc(-c3ccc(C(F)(F)F)cc3)cc(C(=O)NC[C@H](O)C(F)F)c2=O)cn1 [Example 219, N-[(2S)-3,3-Difluoro-2-hydroxypropyl]-2-(1-methyl-1H-pyrazol-4-yl)-3-oxo-6-[4-(trifluoromethyl)phenyl]-2,3-dihydropyridazine-4-carboxamide]
- IC50 [1]: > 20 µM
- IC50 [2]: 3.21 nM

Structure (SMILES): O=C(N[C@H](CO)CF)c1cc(-c2ccc(C(F)(F)F)cc2)nn(-c2cccnc2)c1=O [Example 221, N-[(2R)-1-Fluoro-3-hydroxypropan-2-yl]-3-oxo-2-(pyridin-3-yl)-6-[4-(trifluoromethyl)phenyl]-2,3-dihydropyridazine-4-carboxamide]
- IC50 [1]: > 20 µM
- IC50 [2]: 3.63 nM

Structure (SMILES): CC(C)(O)CNC(=O)c1cc(-c2ccc(Cl)cc2)nn(-c2cnsc2)c1=O [Example 222, 6-(4-Chlorophenyl)-N-(2-hydroxy-2-methylpropyl)-3-oxo-2-(1,2-thiazol-4-yl)-2,3-dihydropyridazine-4-carboxamide]
- IC50 [1]: > 20 µM
- IC50 [2]: 4.27 nM

Structure (SMILES): O=C(NC[C@H](O)C(F)(F)F)c1cc(-c2ccc(C(F)(F)F)cc2)nn(-c2cnn(C(F)F)c2)c1=O [Example 223, 2-[1-(Difluoromethyl)-1H-pyrazol-4-yl]-3-oxo-N-[(2S)-3,3,3-trifluoro-2-hydroxypropyl]-6-[4-(trifluoromethyl)phenyl]-2,3-dihydropyridazine-4-carboxamide]
- IC50 [1]: > 20 µM
- IC50 [2]: 4.31 nM

Structure (SMILES): Cc1cc(-n2nc(-c3ccc(Cl)cc3)cc(C(=O)NC[C@H](O)C(F)(F)F)c2=O)cs1 [Example 225, 6-(4-Chlorophenyl)-2-(5-methyl-3-thienyl)-3-oxo-N-[(2S)-3,3,3-trifluoro-2-hydroxypropyl]-2,3-dihydropyridazine-4-carboxamide]
- IC50 [1]: > 20 µM
- IC50 [2]: 5.04 nM

Structure (SMILES): C[C@H](NC(=O)c1cc(-c2ccc(C(F)(F)F)cc2)nn(-c2cccnc2)c1=O)C(C)(C)O [Example 226, N-[(2S)-3-Hydroxy-3-methylbutan-2-yl]-3-oxo-2-(pyridin-3-yl)-6-[4-(trifluoromethyl)phenyl]-2,3-dihydropyridazine-4-carboxamide]
- IC50 [1]: > 20 µM
- IC50 [2]: 5.91 nM

Structure (SMILES): C[C@H](NC(=O)c1cc(-c2ccc(C(F)(F)F)cc2)nn(-c2cnn(C(F)F)c2)c1=O)C(C)(C)O [Example 228, 2-[1-(Difluoromethyl)-1H-pyrazol-4-yl]-N-[(2S)-3-hydroxy-3-methylbutan-2-yl]-3-oxo-6-[4-(trifluoromethyl)phenyl]-2,3-dihydropyridazine-4-carboxamide]
- IC50 [1]: > 20 µM
- IC50 [2]: 13.3 nM

Structure (SMILES): C[C@H](NC(=O)c1cc(-c2ccc(C(F)(F)F)nc2)nn(-c2cnsc2)c1=O)C(C)(C)O [Example 233, N-[(2S)-3-Hydroxy-3-methylbutan-2-yl]-3-oxo-2-(1,2-thiazol-4-yl)-6-[6-(trifluoromethyl)pyridin-3-yl]-2,3-dihydropyridazine-4-carboxamide]
- IC50 [1]: 17.2 µM
- IC50 [2]: 8.23 nM

Structure (SMILES): O=C(NC[C@H](O)C(F)(F)F)c1cc(-c2ccc(Cl)cc2)nn(-c2cnoc2)c1=O [Example 235, 6-(4-Chlorophenyl)-2-(1,2-oxazol-4-yl)-3-oxo-N-[(2S)-3,3,3-trifluoro-2-hydroxypropyl]-2,3-dihydropyridazine-4-carboxamide]
- IC50 [1]: > 20 µM
- IC50 [2]: 8.87 nM

Structure (SMILES): O=C(N[C@H](CO)C(F)(F)F)c1cc(-c2ccc(Cl)cc2)nn(-c2cnn(C(F)F)c2)c1=O [Example 236, 6-(4-Chlorophenyl)-2-[1-(difluoromethyl)-1H-pyrazol-4-yl]-3-oxo-N-[(2R)-1,1,1-trifluoro-3-hydroxypropan-2-yl]-2,3-dihydropyridazine-4-carboxamide]
- IC50 [1]: > 20 µM
- IC50 [2]: 9.03 nM

Structure (SMILES): Cn1cc(-n2nc(-c3ccc(C(F)(F)F)cc3)cc(C(=O)N[C@@H]3CCC[C@@H]3O)c2=O)cn1 [Example 239, N-[(1R,2S)-2-Hydroxycyclopentyl]-2-(1-methyl-1H-pyrazol-4-yl)-3-oxo-6-[4-(trifluoromethyl)phenyl]-2,3-dihydropyridazine-4-carboxamide]
- IC50 [1]: > 20 µM
- IC50 [2]: 10 nM

Structure (SMILES): Cc1cc(-n2nc(-c3ccc(Cl)cc3)cc(C(=O)N[C@@H](C)CO)c2=O)cs1 [Example 242, 6-(4-Chlorophenyl)-N-[(2S)-1-hydroxypropan-2-yl]-2-(5-methyl-3-thienyl)-3-oxo-2,3-dihydropyridazine-4-carboxamide]
- IC50 [1]: > 20 µM
- IC50 [2]: 11.1 nM

Structure (SMILES): C[C@@H](CO)NC(=O)c1cc(-c2ccc(Cl)cc2)nn(-c2csc(Cl)c2)c1=O [Example 243, 6-(4-Chlorophenyl)-2-(5-chloro-3-thienyl)-N-[(2S)-1-hydroxypropan-2-yl]-3-oxo-2,3-dihydropyridazine-4-carboxamide]
- IC50 [1]: > 20 µM
- IC50 [2]: 11.8 nM

Structure (SMILES): C[C@@H](CO)NC(=O)c1cc(-c2ccc(C(F)(F)F)cc2)nn(-c2cn[nH]c2)c1=O [Example 244, N-[(2S)-1-Hydroxypropan-2-yl]-3-oxo-2-(1H-pyrazol-4-yl)-6-[4-(trifluoromethyl)phenyl]-2,3-dihydropyridazine-4-carboxamide]
- IC50 [1]: > 20 µM
- IC50 [2]: 11.9 nM

Structure (SMILES): Cn1cc(-n2nc(-c3ccc(C(F)(F)F)cc3)cc(C(=O)NC[C@H](O)CF)c2=O)cn1 [Example 245, N-[(2S)-3-Fluoro-2-hydroxypropyl]-2-(1-methyl-1H-pyrazol-4-yl)-3-oxo-6-[4-(trifluoromethyl)phenyl]-2,3-dihydropyridazine-4-carboxamide]
- IC50 [1]: > 20 µM
- IC50 [2]: 12.8 nM

Structure (SMILES): Cc1cc(-n2nc(-c3ccc(Cl)cc3)cc(C(=O)NCC(C)(C)O)c2=O)cs1 [Example 246, 6-(4-Chlorophenyl)-N-(2-hydroxy-2-methylpropyl)-2-(5-methyl-3-thienyl)-3-oxo-2,3-dihydropyridazine-4-carboxamide]
- IC50 [1]: > 20 µM
- IC50 [2]: 13.2 nM

Structure (SMILES): C[C@@H](CO)NC(=O)c1cc(-c2ccc(C(F)(F)F)nc2)nn(-c2cnsc2)c1=O [Example 251, N-[(2S)-1-Hydroxypropan-2-yl]-3-oxo-2-(1,2-thiazol-4-yl)-6-[6-(trifluoromethyl)pyridin-3-yl]-2,3-dihydropyridazine-4-carboxamide]
- IC50 [1]: > 20 µM
- IC50 [2]: 17.9 nM

Structure (SMILES): C[C@@H](CO)NC(=O)c1cc(-c2ccc(Cl)cc2)nn(-c2cnoc2)c1=O [Example 253, 6-(4-Chlorophenyl)-N-[(2S)-1-hydroxypropan-2-yl]-2-(1,2-oxazol-4-yl)-3-oxo-2,3-dihydropyridazine-4-carboxamide]
- IC50 [1]: > 20 µM
- IC50 [2]: 19.4 nM

Structure (SMILES): N#C[C@@H](CO)NC(=O)c1cc(-c2ccc(Cl)cc2)nn(-c2cccnc2)c1=O [Example 254, 6-(4-Chlorophenyl)-N-[(1S)-1-cyano-2-hydroxyethyl]-3-oxo-2-(pyridin-3-yl)-2,3-dihydropyridazine-4-carboxamide]
- IC50 [1]: > 20 µM
- IC50 [2]: 22.9 nM

Structure (SMILES): O=C(NC[C@H](O)CF)c1cc(-c2ccc(C(F)(F)F)cc2)nn(-c2cccnc2)c1=O [Example 255, N-[(2S)-3-Fluoro-2-hydroxypropyl]-3-oxo-2-(pyridin-3-yl)-6-[4-(trifluoromethyl)phenyl]-2,3-dihydropyridazine-4-carboxamide]
- IC50 [1]: > 20 µM
- IC50 [2]: 25.8 nM
